One molecule from PMC7176436, “Post-translational regulation of retinal IMPDH1 in vivo to adjust GTP synthesis to illumination conditions” (eLife, 2020) can be followed below.

Each structure is given as a SMILES string.

The target in this assay is T1, IMPDH1 (murine retinal) (Mus musculus, UniProt P50096).
T1 construct: native, murine retina
Briefly: IMPDH1 spicule formation in retinas treated with […] MPA; SDS-PAGE mobility shift after injection of its prodrug MMF. The class given is cell-based.

T1 sequence (P50096 whole entry): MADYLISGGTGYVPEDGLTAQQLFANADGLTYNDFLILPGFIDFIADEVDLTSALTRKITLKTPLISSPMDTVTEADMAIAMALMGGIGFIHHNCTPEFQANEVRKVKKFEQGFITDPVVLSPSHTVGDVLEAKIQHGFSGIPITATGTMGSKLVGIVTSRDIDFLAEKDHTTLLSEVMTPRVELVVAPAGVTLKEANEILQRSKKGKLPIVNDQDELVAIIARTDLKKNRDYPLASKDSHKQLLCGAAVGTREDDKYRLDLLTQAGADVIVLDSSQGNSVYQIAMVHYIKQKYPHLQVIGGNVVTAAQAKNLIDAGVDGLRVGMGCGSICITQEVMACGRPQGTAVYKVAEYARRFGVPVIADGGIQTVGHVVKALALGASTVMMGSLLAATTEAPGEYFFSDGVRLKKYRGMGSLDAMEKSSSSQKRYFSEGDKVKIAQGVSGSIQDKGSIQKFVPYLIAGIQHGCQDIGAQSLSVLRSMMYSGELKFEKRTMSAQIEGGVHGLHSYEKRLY

As for `COc1c(C)c2c(c(O)c1C/C=C(\C)CCC(=O)O)C(=O)OC2` [mycophenolic acid], the “IMPDH1 spicule formation in retinas treated with 10 μM MPA; SDS-PAGE mobility sh” value was “MPA inhibition of IMPDH1 resulted in the formation and accumulation of IMPDH1 spicules with time”.
